Test results: publication PMC6724072, “Biotransformation of the Mycotoxin Enniatin B1 by CYP P450 3A4 and Potential for Drug-Drug Interactions” (Metabolites, 2019)
Where two headings read alike, the source gives them in different places.

Columns and labels:
CYP3A4 [1] = tested on: CYP3A4; parameters: method as in PMID 16467307; conditions: read-out: Ks; cited from earlier work
CYP3A4 [2] = target: T1, CYP3A4 (Homo sapiens, UniProt P08684, S18F)
CYP3A [3] = tested on: CYP3A
CYP3A4 [4] = target: T1, CYP3A4; conditions: ND; 15 min; DON 10 µM and 50 µM; different ENNB1 concentrations
CYP3A4/5 = conditions: HLM, 10 µM DON and […] ENNB1
CYP3A4 [5] = target: T1, CYP3A4; conditions: for PGS hydroxylation rate (sum of 2β- and 6β-OH-PGS): ND, without DON, mean ± SEM
CYP3A [6] = conditions: porcine hepatic microsomes; cited from earlier work
[7] = parameters: method as in PMID 27632250; conditions: chicken; cited from earlier work
in vitro = conditions: human, microsomes, pH 7.4
[8] = parameters: method as in PMID 24239892, PMID 23598119; conditions: pigs; cited from earlier work
[9] = In vitro-to-in vivo extrapolation of kinetic parameters (well-stirred liver model); format: in vitro ADME
Method: (§1) The kinetic parameters were derived in HLM assays from the substrate depletion rate constants (ke) that were determined by regression analysis of measured peak areas of the added substrate versus time curves (A(t) = b + a*e^−ket), as described before. Briefly, the assay half-lifes (t1/2, assay = ln2/ke) and assay clearances (CLassay = Vassay*ke) were calculated under consideration of the assay volume (Vassay). Disregarding the potential protein binding of the substrate in the reaction mixture (assuming that the fraction unbound in the assay (fu, assay ~ 1)), the determined assay clearances approximated the intrinsic assay clearances (CLint, assay), which can be described by the Michaelis–Menten equation parameters maximal velocity (vmax, assay) and […] (KM, assay) under the condition that the substrate concentration is well below the KM-value (CLint, assay = vmax, assay/KM, assay). The KM, assay for ENNB1 depletion was determined with different initial concentrations by plotting the determined depletion rate constants versus the respective concentrations. The inflection point of the curve in a lin-log plot represented the KM-value, which occurred when ke is half of the theoretical maximum k0 at infinitesimally low ENNB1 concentrations (ke = k0[ENNB1]→0 *(1 − [ENNB1]/([ENNB1] + KM)).
The CLint, assay in HLM was upscaled to the assay-independent, intrinsic liver clearance (CLint = CLint, assay*MRI*RLW/Protassay) by considering the amounts of microsomal protein in the assay (Protassay), human relative liver weight (RLW), and human microsomal recovery index (MRI) (Table 1). In vitro-to-in vivo extrapolation (IVIVE) was performed by applying the well-stirred liver model and calculating the systemic blood clearances (CLb) from the CLint, while considering the human hepatic blood flow (Q) (CLb = Q*CLint*fu,b/(Q + CLint*fu,b)). […] The maximal bioavailability (fmax) after oral application was calculated under the assumption of complete absorption from the gastrointestinal tract (fa = 1) as fmax = 1 − CLb/Q.

[10] = ENNB1 substrate depletion assay in human liver microsomes; format: in vitro ADME; conditions: HLM
Method: as §1
ENNB1 and its major biotransformation products were analysed while using a Finnigan LTQ linear ion trap mass spectrometer (Thermo Fisher Scientific Inc., Waltham, MA, USA) that was coupled to an ACQUITY UPLC System (Waters). Separation was achieved on a 50 × 2.1-mm i.d. C18 3-μm SunFire column (Waters) with 0.5 μm pre-column filter (Supelco, Bellefonte, PA, USA). The mobile phase was composed of water (A) and MeCN (B) (both containing 2 mM NH4COOH and 2 mM HCOOH). The optimised linear gradient started at 40% B and was held for 1.5 min, before it was raised to […] over 14.5 min. The column was flushed with […] for 2 min, returned to 40% B, and equilibrated for 2.0 min. The total run time was 20 min.
ENNB1 and its putative metabolites were identified by their molecular weights (mass-to-charge (m/z) ratios) and specific retention times. In addition, the MS^n data of the sodiated molecular ions were specified in fragmentation experiments and used for confirmation. The measured peak areas of the ammoniated molecular ions ([M+NH4]^+) were used for the determination of in vitro kinetic parameters and for quantification purposes.

female mice = tested on: female mice; parameters: method as in doi:10.2903/sp.efsa.2018.EN-1406; conditions: cited from earlier work
CYP3A [11] = assay: in vitro; conditions: human, microsomes, pH 7.4
CYP3A4 [12] = conditions: cited from earlier work

T1 sequence (P08684 with tags, fused parts or gaps S18F limits assumed): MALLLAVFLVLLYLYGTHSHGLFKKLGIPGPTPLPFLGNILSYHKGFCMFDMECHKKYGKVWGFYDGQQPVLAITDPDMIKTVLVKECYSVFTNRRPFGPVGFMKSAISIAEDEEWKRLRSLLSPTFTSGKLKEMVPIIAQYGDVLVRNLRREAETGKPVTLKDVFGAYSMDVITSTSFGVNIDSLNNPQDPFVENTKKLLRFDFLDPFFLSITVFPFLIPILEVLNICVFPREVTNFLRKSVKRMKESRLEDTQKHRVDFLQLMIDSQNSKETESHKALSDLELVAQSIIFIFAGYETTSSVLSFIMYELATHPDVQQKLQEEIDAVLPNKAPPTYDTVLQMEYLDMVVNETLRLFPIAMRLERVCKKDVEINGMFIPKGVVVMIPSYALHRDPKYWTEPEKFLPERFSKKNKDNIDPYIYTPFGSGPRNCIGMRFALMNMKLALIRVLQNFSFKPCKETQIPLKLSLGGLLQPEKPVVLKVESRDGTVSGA
T1 sequence (P02647 79-267 partner limits assumed): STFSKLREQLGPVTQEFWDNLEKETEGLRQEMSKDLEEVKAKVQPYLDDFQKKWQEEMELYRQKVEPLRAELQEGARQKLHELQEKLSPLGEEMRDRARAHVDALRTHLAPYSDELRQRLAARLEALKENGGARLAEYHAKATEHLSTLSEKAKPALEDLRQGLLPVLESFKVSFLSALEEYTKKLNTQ

CC1=C[C@H]2O[C@@H]3[C@H](O)C[C@](C)([C@@]2(CO)[C@H](O)C1=O)[C@]31CO1 [DON, Deoxynivalenol]
effect on MDZ metabolite formation profiles (CYP3A [3]; HLM, DON up to 50 µM): Only an indication of a slight change
effect on MDZ depletion kinetics (CYP3A [3]; HLM, DON up to 50 µM, data not shown): did not have a significant effect
formation of hydroxylated ENNB1 metabolites vs assays only containing ENNB1 (CYP3A4 [4]): significantly lower
effect on formation of ENNB1 metabolites M3/4, M5, M6 (sum) (CYP3A4/5): inhibited the formation of the hydroxylated ENNB1 metabolites M3/4, M5, and M6 in HLM significantly
effect on depletion of ENNB1 (CYP3A4/5; data not shown): did not observe a significant difference
inhibition of the CYP3A4-dependent metabolism of the typical substrates (CYP3A4 [5]): weak to moderate inhibition
decrease of 2-OH ATVS lactone (minor product) formation (CYP3A4 [5]; human, pH 7.4): about 20%
reduction of CYP3A reactivity (CYP3A [6]): about 20%

CC[C@H](C)[C@H]1C(=O)O[C@H](C(C)C)C(=O)N(C)[C@@H](C(C)C)C(=O)O[C@H](C(C)C)C(=O)N(C)[C@@H](C(C)C)C(=O)O[C@H](C(C)C)C(=O)N1C [ENNB1, Enniatin B1]
bioavailability [7]: < 10%
half-life at […] (in vitro): 12 min
1,4-OH-MDZ level relative to ENNB1-free metabolism (CYP3A [3]; HLM, after 60 min, with ENNB1): reduced to the half
1-OH-MDZ level relative to ENNB1-free metabolism (CYP3A [3]; HLM, after 60 min, with ENNB1): returned to normal
MDZ metabolite formation in presence of ENNB1 (CYP3A [3]; HLM, first 15 min): generally hindered
bioavailability [8]: > 90%
bioavailability ([9]; human liver microsomes, po, assuming complete absorption from the gastrointestinal tract, read-out: fmax (maximum oral bioavailability)): 45%
CLint ([9]; human, MRI = 40 mg/g, RLW = 22 g/kg BW): 1.72 L/(h×kg×BW)
CLb ([9]; human, well-stirred model, Q = 1.4 L/(h × kg), fu,b ≈ 1): 0.77 L/(h×kg×BW)
CLint, assay ([10]; 1 mL assay, 2 mg microsomal protein): 0.07 mL/min
unchanged molecule detectable ([10]; incubation of 6 µM for 60 min): less than 4%
k el at 3 µM ([10]; human, human liver microsomes, pH 7.4, ENNB1 concentration 3 µM, read-out: ke (converted)): 0.00108 s⁻¹
half-life at 3 µM ([10]; human, human liver microsomes, pH 7.4, substrate concentration 3 µM, read-out: t1/2, assay): 11 min
Km ([10]; human, liver microsomes, pH 7.4, derived from depletion assays with three ENNB1 concentrations (0.8; 3; 6 µM)): 10.1 µM
spin shift of CYP3A4 haem iron (binding) (CYP3A4 [2]; ND, ENNB1 21 µM): visible spectral change

CC(C)[C@H]1C(=O)O[C@H](C(C)C)C(=O)N(C)[C@@H](C(C)C)C(=O)O[C@H](C(C)C)C(=O)N(C)[C@@H](C(C)C)C(=O)O[C@H](C(C)C)C(=O)N1C [ENNB, Enniatin B]
bioavailability [7]: < 10%
no-observed adverse effect level (NOAEL) (female mice): 0.18 mg/kg body-weight (bw)/day
bioavailability [8]: > 90%

Cc1ncc2n1-c1ccc(Cl)cc1C(c1ccccc1F)=NC2 [MDZ, midazolam]
initial MDZ detectable (CYP3A [3]; human, pH 7.4): about 0.2%
half-life (CYP3A [11]): 12 min
Km (CYP3A4 [12]; read-out: KM,1-OH-MDZ, 1-hydroxylation of MDZ): 3.9 µM
Km (CYP3A4 [12]; read-out: KM,4-OH-MDZ, 4-hydroxylation of MDZ): 77.5 µM

CC(=O)[C@H]1CC[C@H]2[C@@H]3CCC4=CC(=O)CC[C@]4(C)[C@H]3CC[C@]12C [PGS, progesterone, reference compound]
PGS hydroxylation rate (sum of 2β- and 6β-OH-PGS) (CYP3A4 [5]; PGS 15 μM): 5.3 ± 0.6 nmol/(min×nmol CYP3A4)
PGS hydroxylation rate (sum of 2β- and 6β-OH-PGS) (CYP3A4 [5]; PGS 40 μM): 10.4 ± 1.0 nmol/(min×nmol CYP3A4)
